In patent US5858978A, “Pharmaceutical compositions containing calcitonin gene-related peptide (CGRP) and use thereof to ameliorate hyperimmune mediated diseases and abnormal conditions” (Yale University, priority 1997, dated 1999):
Read-outs that look alike come from different tables or passages of the source.

Assays:
[1] = system: macrophages; details: cited from earlier work
[2] = system: giant cells (fused alveolar macrophages); test: IL-1 release by giant cells (fused alveolar macrophages), IL-1 bioassay of supernatants; assay type: cell-based, rat; details: added to release medium on day 3, 24 hour release
Protocol: (§1) Rat alveolar and peritoneal macrophages were obtained from 12 week old Fisher 344 rats (Charles River, Kingston, N.Y.). Alveolar macrophages were collected by tracheobronchial lavage as previously described (Vignery et al., J. Histochem Cytochem. , 1989). Peritoneal macrophages were collected from the same rats prior to the lung lavage. The collected cells were: (i) washed twice in Minimum Essential Medium with Earle's salts (MEME) supplemented with 2 mM L-glutamine and vitamins; (ii) plated in 6 well dishes at 10^7 cells/ml, 10^6 cells per well, in MEME containing 10% heat inactivated human serum (HS); (iii) incubated for 20 minutes at 37° C. in 5% CO2, 95% air to let the macrophages adhere; (iv) subsequently grown at 10^6 cells/ml of MEME containing 5% heat inactivated HS. Cells were cultured in FCS for the IL-6 bioassay. All tissue culture reagents were purchased from Gibco Laboratories, Grand Island, N.Y. The adherent cell populations were composed of 99% macrophages and a few occasional polymorphonuclear cells as determined by Wright stain.
(§2) To estimate the release of IL-1 and IL-6 by peritoneal macrophages and fused alveolar macrophages, the cells were collected and cultured as described above. Prior to perform the release, the cells were washed twice with warm MEME and subsequently incubated for 24 hours in 1 ml of MEME supplemented with 5% of HS or FCS, with or without agonist. At the termination of the release, the supernatant were collected, spun at 400 g for 10 minutes, transferred to microfuge tubes and stored at -20° C. until assayed. Macrophages remained adherent and viable in all experiments as determined by DNA measurements and trypan blue exclusion.
IL-1 activity in the macrophage supernatants was measured according to Gillis and Mizel (Proc. Natl. Acad. Sci., USA, 1981, 78:1133-1137). LBRM-33 cells, clones 1A5 and 5A4 (ATCC, Rockville, Md.) were stimulated with either PHA (Gibco), rm IL-1β or log2 dilutions of the macrophage supernatants. […] After 24 hours, the cells were exposed to 0.5 μCi[^3 H]dThd (20 mCi/mmol, New England Nuclear) for an additional 4 hours after which the cultures were harvested onto glass fiber filter strips with the aid of a multiple automated sample harvester (MASH 11, Microbiological Associates, Bethesda, Md.) [^3 H]dThd incorporation was determined by direct counting.
When peritoneal macrophages from the same animals are grown in these conditions, they remain mononucleated and can therefore be used as a nonfusing control population. It was previously confirmed that giant cells differentiate in vitro by actual cell-cell fusion since DNA synthesis cannot be detected and that the total amount of DNA remains constant during culture in both alveolar and peritoneal macrophages. […]

[3] = system: peritoneal macrophages and giant cells; test: IL-6 release by peritoneal and fused alveolar macrophages (IL-6 bioassay, B13.29 subclone B9); assay type: cell-based, rat
Protocol: as §1, §2
Five thousand,B13.29 cells subclone B9 (donated by Dr. Thomas Kupper, Washington University of School of Medicine, Washington, Mo.) were cultured in the presence of a log2 dilution series of macrophage supernatants or standard dilutions of rmIL-6 according to Aarden, L. A. ( Eur. J. Immunol., 1987, 17:1411-1416). […]

[4] = system: peritoneal macrophages; test: Generation of intracellular cAMP in peritoneal macrophages (radioimmunoassay); assay type: cell-based, rat; details: for cAMP accumulation in peritoneal macrophages: all time points examined
Protocol: as §1
(§3) For cAMP studies, cells were grown under the conditions described above but using either 24 or 96 well dishes. Each well contained either 2×10^5 or 5×10^4 cells grown in 800 or 200 μl, respectively. The cells were first washed with warm MEME and subsequently incubated at 37° C. in MEME supplemented with BSA (1 mg/ml) (Sigma Chemical, St. Louis, Mo.) either in the absence or presence of Salmon Calcitonin (sCT) (kindly provided by Dr. Orlowski, Rorer Central Research, Horsham, Pa.), rat calcitonin gene-related peptide (CGRP) (Bachem, Inc., Torrance, Calif.) and 3-isobutyl-1-methylxanthine (IBMX)(Sigma) for the indicated times. Incubations were terminated by aspirating the medium and adding 100 μl of 0.4% perchloric acid to each well. Perchloric acid extracts were neutralized with 1.5M KOH and stored at -20° C. These samples were acetylated and cAMP measured by radioimmunoassay using succinylated ^125 I-labeled cARP (Biomedical Technologies, Inc., Stoughton, Ma.). Results were expressed as fentomoles of CAMP per well. Experiments were performed in duplicates or triplicates and repeated at least 3 times.

[5] = system: giant cells (fused alveolar macrophages); test: Generation of intracellular cAMP in giant cells (fused alveolar macrophages), radioimmunoassay; assay type: cell-based, rat
Protocol: as §1, §3
When peritoneal macrophages from the same animals are grown in these conditions, they remain mononucleated and can therefore be used as a nonfusing control population. It was previously confirmed that giant cells differentiate in vitro by actual cell-cell fusion since DNA synthesis cannot be detected and that the total amount of DNA remains constant during culture in both alveolar and peritoneal macrophages. Therefore, the actual number of alveolar macrophages is decreased drastically by day 4 when each giant cell contains hundreds of nuclei. The important point is that the total number of nuclei remains constant so that we refer to giant cells and peritoneal macrophages as such or else as number of plated cells.

[6] = system: peritoneal macrophages; test: IL-1 release by peritoneal macrophages (IL-1 bioassay of supernatants); assay type: cell-based, rat; details: for IL-1 activity detected in peritoneal macrophage supernatants: added to release medium on day 3, 24 hour release
Protocol: as §1, §2
(§4) IL-1 activity in the macrophage supernatants was measured according to Gillis and Mizel (Proc. Natl. Acad. Sci., USA, 1981, 78:1133-1137). LBRM-33 cells, clones 1A5 and 5A4 (ATCC, Rockville, Md.) were stimulated with either PHA (Gibco), rm IL-1β or log2 dilutions of the macrophage supernatants. LBRM-33 lymphocyte supernatants were harvested from 24 hour cultures and subsequently tested for IL-2 activity using a standard microassay, Gillis et al. (J. Immunol., 1978, 120:2027-2032), based on the IL-2 dependent exponential proliferation of a murine cytotoxic T-cell line CTLL (ATCC, Rockville, Md.), Gillis and Smith (Nature (London), 1977, 268:154-156). CTLL cells were cultured in the presence of a log2 dilution series of putative IL-2 containing samples. After 24 hours, the cells were exposed to 0.5 μCi[^3 H]dThd (20 mCi/mmol, New England Nuclear) for an additional 4 hours after which the cultures were harvested onto glass fiber filter strips with the aid of a multiple automated sample harvester (MASH 11, Microbiological Associates, Bethesda, Md.) [^3 H]dThd incorporation was determined by direct counting.

[7] = system: LBRM-33 cells; test: IL-1 bioassay with CGRP added to IL-1 containing medium (LBRM-33 cells, CTLL readout); assay type: cell-based, murine
Protocol: as §4

[8] = system: CTLL cells; test: IL-2 dependent proliferation of CTLL cells treated directly; assay type: cell-based, murine; details: in the presence of IL-2
Protocol: as §4

[9] = system: chronic rheumatoid arthritis; test: Treatment of chronic rheumatoid arthritis in a human being; assay type: in vivo; details: I.M. administration of 0.5 mg every 24 hours until relief

## calcitonin [CT]
[1]
  macrophage activation: prevented macrophage activation

## CC(C)C[C@H](NC(=O)[C@H](CCCCN)NC(=O)CNC(=O)[C@H](CC(C)C)NC(=O)[C@@H](NC(=O)[C@@H]1CSSC[C@H](N)C(=O)N[C@@H](CO)C(=O)N[C@@H](CC(N)=O)C(=O)N[C@@H](CC(C)C)C(=O)N[C@@H](CO)C(=O)N[C@@H]([C@@H](C)O)C(=O)N1)C(C)C)C(=O)N[C@@H](CO)C(=O)N[C@@H](CCC(N)=O)C(=O)N[C@@H](CCC(=O)O)C(=O)N[C@@H](CC(C)C)C(=O)N[C@@H](Cc1c[nH]cn1)C(=O)N[C@@H](CCCCN)C(=O)N[C@@H](CC(C)C)C(=O)N[C@@H](CCC(N)=O)C(=O)N[C@H](C(=O)N[C@@H](Cc1ccc(O)cc1)C(=O)N1CCC[C@H]1C(=O)N[C@@H](CCCNC(=N)N)C(=O)N[C@H](C(=O)N[C@@H](CC(N)=O)C(=O)N[C@H](C(=O)NCC(=O)N[C@@H](CO)C(=O)NCC(=O)N[C@H](C(=O)N1CCC[C@H]1C(N)=O)[C@@H](C)O)[C@@H](C)O)[C@@H](C)O)[C@@H](C)O [sCT, Salmon Calcitonin]
[2]
  IL-1 activity detected in giant cell supernatants: reduced significantly
[3]
  IL-6 activity level in macrophage supernatants: neither sCT nor CGRP treatment of the cells modified this level
[4]
  cAMP accumulation in peritoneal macrophages: failed to induce a response
[5]; fused alveolar macrophages, absence of IBMX
  time of peak of cAMP accumulation after addition of the peptide: 5 min
[5]; fused alveolar macrophages, with 10 μM IBMX
  lag time to cAMP accumulation: 2 min
[5]; giant cells, absence of IBMX
  time at which cAMP returned to basal level: 15 min
[5]; giant cells, presence of IBMX
  time at which cAMP returned to basal level: 30 min
[5]; giant cells, sCT dose response
  half maximal cAMP accumulation: 50 fmoles per 6.4×10^4 plated cells
[5]; giant cells, sCT dose response, read-out: concentration for half maximal stimulation of cAMP accumulation
  EC50: 2 nM

## C=C[C@@]1(C)CC(=O)[C@]2(O)[C@@]3(C)[C@@H](O)CCC(C)(C)[C@@H]3[C@H](O)[C@H](OC(C)=O)[C@@]2(C)O1 [forskolin]
[6]
  IL-1 activity detected in peritoneal macrophage supernatants: as effective as CGRP in blocking the secretion of IL-1
[2]
  IL-1 activity detected in giant cell supernatants: as effective as CGRP in blocking the secretion of IL-1

## Rat Calcitonin Gene-Related Peptide [CGRP]
[6]; 1,25(OH)2-vitamin D3 stimulated peritoneal macrophages
  IL-1 bioactivity in supernatants of vitamin D3 stimulated peritoneal macrophages: reduce significantly
[6]
  IL-1 activity detected in peritoneal macrophage supernatants: prevented the release of IL-1 by both cell types
[2]
  IL-1 activity detected in giant cell supernatants: prevented the release of IL-1 by both cell types
[3]
  IL-6 activity level in macrophage supernatants: neither sCT nor CGRP treatment of the cells modified this level
[4]; peritoneal macrophages, 2 minutes incubation in the presence of IBMX
  half maximal concentration of cAMP: 80 fmoles per 5×10^4 plated cells
[4]; peritoneal macrophages, 2 minutes incubation in the presence of IBMX, read-out: concentration giving half maximal concentration of cAMP
  EC50: 2 nM
[5]; fused alveolar macrophages, 2 minutes incubation in the presence of IBMX
  half maximal concentration of cAMP: 300 fmoles per 5×10^4 plated cells
[5]; fused alveolar macrophages, 2 minutes incubation in the presence of IBMX, read-out: concentration giving half maximal concentration of cAMP
  EC50: 2 nM
[5]; macrophages, comparison CGRP vs CT
  cAMP accumulation compared with CT: larger accumulation of cAMP in macrophages than CT
[7]
  proliferative response of CTLL cytotoxic T cells in the IL-1 bioassay: prevents the proliferative response
[8]
  proliferation of CTLL cells: did not prevent significantly their proliferation
[9]
  symptoms of the disease, e.g. pain and swelling of the affected joints: amelioration of the symptoms of the disease
[1]
  ability of macrophages to act as APC: profoundly inhibit
  ability of macrophages to produce H2O2 in response to IFN: profoundly inhibit

## CC(C)Cn1c(=O)n(C)c(=O)c2[nH]cnc21 [IBMX, 3-isobutyl-1-methylxanthine]
[4]
  cAMP accumulation in peritoneal macrophages: not able at any time point measured to induce a cAMP accumulation
[5]; fused alveolar macrophages, any time point measured
  cAMP accumulation in giant cells: not able at any time point measured to induce a cAMP accumulation

## C=C1/C(=C\C=C2/CCC[C@]3(C)[C@@H]([C@H](C)CCCC(C)(C)O)CC[C@@H]23)C[C@@H](O)C[C@@H]1O [1,25(OH)2 -vitamin D3]
[6]
  IL-1 activity detected in peritoneal macrophage supernatants: stimulated the proliferation of CTLL cells, and probably IL-1 release
[2]
  IL-1 activity detected in giant cell supernatants: fail to respond
[3]
  IL-6 activity level in macrophage supernatants: neither CGRP nor 1,25(OH)2 -vitamin D3 appear to significantly alter this process
